# Source: US12285402B2, “Compositions and methods for treating pulmonary disorders” (GNT Pharma Co., Ltd., priority 2021, dated 2025)
# What was measured:
# [1] = system: PPE-induced COPD model mice; experiment: Porcine pancreatic elastase (PPE)-induced emphysema model, post-treatment; format: in vivo, C57BL/6J mice; details: started 3 days after PPE, sacrifice day 21
# Method: Porcine Pancreatic Elastase (PPE)-induced emphysema model was used to measure the post-treatment effects of ATPB in COPD model mice. C57BL/6J mice were intratracheally injected with PPE (0.8 U per mouse) in PBS via a micropipette. The mice were randomly divided into […]: (A) emphysema group, which was exposed to intratracheal PPE; (B) emphysema+ATPB (5 mg/kg ATPB, PO, bid); (C) emphysema +ATPB (10 mg/kg ATPB, PO, bid); (D) emphysema +roflumilast (10 mg/kg, PO, qd); and (E) emphysema +prednisolone (1 mg/kg, PO, qd). All treatments were started 3 days after the PPE injection. Mice were sacrificed 21 days after the PPE injection.
# (§1) Rats and mice were sacrificed, and BALF was obtained by cannulating the trachea and lavage three times with 2 mL DPBS. BALF cells were centrifuged at 1000×g for 10 min at 4° C. The supernatants were collected and stored at −80° C. to measure inflammatory factors. The pelleted BALF cells were resuspended in 1 mL PBS and quantified using a hematology analyzer (Mindray Medical International Ltd., Shenzhen, China).
# [2] = system: smoking-induced COPD rats; experiment: Rat model of COPD by smoke exposure and intratracheal LPS; format: in vivo; details: for IL-6 gene expression in the lungs (RT-PCR) / MCP-1 gene expression in the lungs (RT-PCR) / TNF-α gene expression in the lungs (RT-PCR): FIG. 7, P<0.01 or P<0.05
# Method: As described previously, the rat model of COPD was established by smoke exposure and intratracheal instillation of lipopolysaccharide (LPS). Experimental rats, including the COPD and drug-treated groups (10 mg/kg ATPB), underwent whole-body exposure to tobacco smoke from 10 cigarettes in a tobacco smoke chamber (90×40×30 cm, made of Plexiglas) twice a day with 2-hour smoke-free intervals, every day for 12 weeks.
# Animals from the two smoke-exposed groups were administered 180 μg/180 μL of LPS solution intratracheally on two occasions, on the first and 14th days of tobacco smoke exposure. Additionally, rats in the ATPB group were orally administered ATPB (10 mg/kg ATPB). All rats were sacrificed on the 91st day.
# as §1
# Total RNA from the lung tissue was extracted using TRIzol reagent (Invitrogen) according to the manufacturer's instructions. cDNA was synthesized using a cDNA Synthesis Kit (Life Technologies). SYBR Green Master Mix (Thermo Fisher) was used for PCR amplification on a StepOnePlus Real-Time PCR System (Applied Biosystems, Foster City, Calif., USA).
# The lungs of the rats were removed at week 12 and fixed in 10% neutral buffered formalin for histopathological analysis. Formalin-fixed tissues were embedded in paraffin, sectioned at […], and stained with hematoxylin and eosin (HE) and Alcian blue-periodic acid-Schiff (AB-PAS) to reveal histopathological lesions.
# OVA-challenged mice = experiment: OVA-induced mouse asthma model; format: in vivo, Balb/C mice
# Method: Seven-week-old female Balb/C mice were sensitized by intraperitoneal injection (IP, 200 μL/mouse) of 100 μg OVA complexed with aluminum potassium sulfate on days 0, 7, and 14. On days 26, 27, and 28, mice were challenged with 5% aerosolized OVA in 48 mL sterile phosphate-buffered saline (PBS). The control group received sterile PBS with aluminum potassium sulfate via the IP route on days 0, 7, 14, and 48 mL of aerosolized sterile PBS on days 26, 27, and 28. Mice in the ATPB group were orally administered 10 mg/kg bid ATPB on days […], 27, 28, and 29.
# as §1
# [3] = ATPB 10 mg/kg, vs COPD rats, FIG. 6
# [4] = ATPB 10 mg/kg bid oral, vs OVA-challenged mice, FIG. 2
# [5] = ATPB 10 mg/kg bid oral, vs vehicle group, FIG. 3
# [6] = ATPB 10 mg/kg, vs OVA-challenged mice, FIG. 4
smiles,measurement,setting,value
O=C(Nc1c(Cl)cncc1Cl)c1ccc(OC(F)F)c(OCC2CC2)c1 [roflumilast],number of WBC in BALF,"[1]; roflumilast 10 mg/kg PO qd, FIG. 8",Neither roflumilast nor prednisolone reduced the WBC count
"CC(=O)Oc1ccc(NCCc2ccc(C(F)(F)F)cc2)cc1C(=O)O [ATPB, 2-acetoxy-5-[2-(4-trifluoromethyl-phenyl)-ethylamino]-benzoic acid]",number of WBC in BALF,"[1]; 10 mg/kg ATPB PO bid, vs vehicle, FIG. 8, P<0.05",significantly reduced
same,number of WBCs in BALF,"[2]; ATPB 10 mg/kg oral, LPS and chronic smoking, 12 weeks, vs vehicle group, FIG. 5",markedly reduced
same,alveolar sacs and alveolar spaces enlargement (H&E lung histopathology),"[2]; ATPB 10 mg/kg oral, vs COPD group, FIG. 6",relieved
same,goblet cell proliferation (PAS+ cells),[2]; [3],decreased
same,mucous secretion (PAS staining),[2]; [3],reduced levels
same,IL-6 gene expression in the lungs (RT-PCR),[2]; vs COPD group,decreased
same,MCP-1 gene expression in the lungs (RT-PCR),[2]; vs COPD group,decreased
same,TNF-α gene expression in the lungs (RT-PCR),[2]; vs COPD group,decreased
same,IL-4 production in BALF (ELISA),OVA-challenged mice; [4],significantly downregulated
same,IL-5 production in BALF (ELISA),OVA-challenged mice; [4],significantly downregulated
same,production of IgE in the serum (ELISA),"OVA-challenged mice; ATPB 10 mg/kg bid oral, vs OVA-challenged mice, serum 24 h after last OVA challenge",significantly reduced
same,EO (eosinophil) cell count in BALF,OVA-challenged mice; [5],markedly reduced
same,LY (lymphocyte) cell count in BALF,OVA-challenged mice; [5],markedly reduced
same,MO (monocyte) cell count in BALF,OVA-challenged mice; [5],markedly reduced
same,WBC cell count in BALF,OVA-challenged mice; [5],markedly reduced
same,cell infiltration into peribranchial lung lesions (H&E staining),OVA-challenged mice; [6],notably downregulated
same,mucus hypersecretion in the bronchial airways (PAS staining),OVA-challenged mice; [6],attenuated
same,OVA-induced inflammatory cell counts in BALF,"OVA-challenged mice; after last OVA challenge, FIG. 3 legend",significantly reduced
same,OVA-induced eotaxin production,OVA-challenged mice; mouse asthma model,attenuated
same,OVA-specific IgE levels in serum (ELISA),"OVA-challenged mice; serum 24 h after last OVA aerosol challenge, FIG. 1",significantly lowered
"C[C@]12C=CC(=O)C=C1CC[C@@H]1[C@@H]2[C@@H](O)C[C@@]2(C)[C@H]1CC[C@]2(O)C(=O)CO [prednisolone, reference compound]",number of WBC in BALF,"[1]; prednisolone 1 mg/kg PO qd, FIG. 8",Neither roflumilast nor prednisolone reduced the WBC count
same,IL-6 gene expression in the lungs (RT-PCR),[2]; vs COPD group,decreased
same,MCP-1 gene expression in the lungs (RT-PCR),[2]; vs COPD group,decreased
same,TNF-α gene expression in the lungs (RT-PCR),[2]; vs COPD group,decreased
